The record followed here is patent publication US20240383901A1, “SUBSTITUTED PYRROLO[2,3-D]PYRIMIDINES, THEIR PREPARATION AND THEIR THERAPEUTIC APPLICATION” (SANOFI, priority 2021, published 2024).

Each structure is given as a SMILES string.

LRRK2, sequence (Q5S007 whole entry): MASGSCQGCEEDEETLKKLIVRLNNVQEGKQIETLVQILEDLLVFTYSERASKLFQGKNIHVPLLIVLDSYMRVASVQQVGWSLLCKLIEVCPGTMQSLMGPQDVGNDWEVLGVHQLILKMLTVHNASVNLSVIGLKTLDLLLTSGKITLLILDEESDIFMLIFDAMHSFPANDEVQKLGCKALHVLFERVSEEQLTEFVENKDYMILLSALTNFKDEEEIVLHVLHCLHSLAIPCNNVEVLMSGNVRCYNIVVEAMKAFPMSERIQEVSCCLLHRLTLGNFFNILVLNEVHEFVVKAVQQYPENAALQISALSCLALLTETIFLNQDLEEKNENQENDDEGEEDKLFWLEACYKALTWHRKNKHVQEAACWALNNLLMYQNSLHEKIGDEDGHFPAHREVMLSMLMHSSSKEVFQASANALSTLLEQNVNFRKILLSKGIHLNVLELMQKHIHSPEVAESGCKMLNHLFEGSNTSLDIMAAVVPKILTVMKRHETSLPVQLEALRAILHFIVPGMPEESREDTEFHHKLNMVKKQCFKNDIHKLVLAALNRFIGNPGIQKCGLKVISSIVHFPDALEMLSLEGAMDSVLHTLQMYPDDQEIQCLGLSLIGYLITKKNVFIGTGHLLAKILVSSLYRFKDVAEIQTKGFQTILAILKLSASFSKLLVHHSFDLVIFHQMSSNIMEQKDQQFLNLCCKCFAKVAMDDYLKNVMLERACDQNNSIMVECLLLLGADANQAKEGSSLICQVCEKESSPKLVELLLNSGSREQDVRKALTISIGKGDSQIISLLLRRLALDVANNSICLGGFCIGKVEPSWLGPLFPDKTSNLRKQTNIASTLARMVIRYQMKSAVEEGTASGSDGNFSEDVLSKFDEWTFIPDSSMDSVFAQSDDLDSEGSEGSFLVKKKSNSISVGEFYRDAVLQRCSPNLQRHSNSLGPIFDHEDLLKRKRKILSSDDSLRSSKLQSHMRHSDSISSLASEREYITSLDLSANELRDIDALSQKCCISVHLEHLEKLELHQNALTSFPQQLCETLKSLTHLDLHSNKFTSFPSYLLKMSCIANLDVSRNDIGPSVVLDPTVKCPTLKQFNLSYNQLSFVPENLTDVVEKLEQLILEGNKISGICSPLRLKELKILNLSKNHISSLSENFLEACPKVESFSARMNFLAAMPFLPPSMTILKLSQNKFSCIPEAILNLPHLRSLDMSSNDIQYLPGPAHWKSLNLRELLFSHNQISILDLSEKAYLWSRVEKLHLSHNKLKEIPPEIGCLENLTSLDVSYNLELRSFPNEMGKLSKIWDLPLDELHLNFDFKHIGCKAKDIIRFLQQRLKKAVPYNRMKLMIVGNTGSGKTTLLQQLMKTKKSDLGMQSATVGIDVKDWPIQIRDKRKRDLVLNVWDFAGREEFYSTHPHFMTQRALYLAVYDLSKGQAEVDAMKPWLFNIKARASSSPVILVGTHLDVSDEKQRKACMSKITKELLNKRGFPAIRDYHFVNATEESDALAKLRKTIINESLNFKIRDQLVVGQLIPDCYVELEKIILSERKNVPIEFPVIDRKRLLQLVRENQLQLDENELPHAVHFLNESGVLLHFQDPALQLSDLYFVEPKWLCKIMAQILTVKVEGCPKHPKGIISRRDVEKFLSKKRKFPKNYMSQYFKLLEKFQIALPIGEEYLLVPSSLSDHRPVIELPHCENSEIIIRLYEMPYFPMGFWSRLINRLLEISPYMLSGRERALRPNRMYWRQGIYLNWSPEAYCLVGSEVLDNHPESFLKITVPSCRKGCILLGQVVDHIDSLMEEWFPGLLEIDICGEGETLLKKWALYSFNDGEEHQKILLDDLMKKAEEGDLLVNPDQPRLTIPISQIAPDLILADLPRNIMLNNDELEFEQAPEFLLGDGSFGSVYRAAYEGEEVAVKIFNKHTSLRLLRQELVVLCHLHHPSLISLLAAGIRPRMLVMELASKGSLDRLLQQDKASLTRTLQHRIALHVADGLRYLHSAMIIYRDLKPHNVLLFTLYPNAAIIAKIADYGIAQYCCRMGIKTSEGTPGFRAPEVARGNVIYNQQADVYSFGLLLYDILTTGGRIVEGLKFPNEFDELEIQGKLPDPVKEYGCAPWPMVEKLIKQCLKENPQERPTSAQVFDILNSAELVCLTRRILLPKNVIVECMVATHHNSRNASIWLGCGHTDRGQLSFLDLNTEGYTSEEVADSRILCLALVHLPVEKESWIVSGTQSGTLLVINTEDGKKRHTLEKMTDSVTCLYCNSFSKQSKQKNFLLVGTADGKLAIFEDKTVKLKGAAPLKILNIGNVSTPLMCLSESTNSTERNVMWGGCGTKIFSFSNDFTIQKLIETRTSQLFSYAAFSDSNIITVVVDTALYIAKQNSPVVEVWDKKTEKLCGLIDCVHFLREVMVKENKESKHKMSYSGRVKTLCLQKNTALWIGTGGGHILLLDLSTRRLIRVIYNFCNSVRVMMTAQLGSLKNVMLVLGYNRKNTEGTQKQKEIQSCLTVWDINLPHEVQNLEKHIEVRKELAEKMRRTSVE

This assay has as its target LRRK2 (Homo sapiens, UniProt Q5S007). Description: LRRK2 WT assay (Assay B, radiometric 33P-ATP filter binding). It is filed as biochemical. Particulars: Assay B (values marked *). As to the method:
LRRK2(human) is incubated with 50 mM HEPES pH 8.0, 0.2 mM EDTA, 0.01% Brij-35, 1% (w/v) BSA, 5 mM DTT, 250 Mm […], 10 mM Magnesium acetate and [[…]]-ATP (specific activity and concentration as required).
The reaction is initiated by the addition of the Mg/ATP mix.
The IC50 is the concentration that gives 50% inhibition. With `Cn1cc(Nc2ncc3cc(C#N)n(C4CCOC4)c3n2)c(OC2COC2)n1` (single isomer, unassigned) [Example 53, 2-((1-methyl-3-(oxetan-3-yloxy)-1 H-pyrazol-4-yl)amino)-7-(tetrahydrofuran-3-yl)-7H-pyrrolo[2,3-d]pyrimidine-6-carbonitrile], the IC50 amounted to 266 nM. This counts as sub-micromolar.
For `CC1COCCC1n1c(C#N)cc2cnc(Nc3cn(C)nc3OC3COC3)nc21` (single isomer, unassigned) [Example 86, ((1-methyl-3-(oxetan-3-yloxy)-1 H-pyrazol-4-yl)amino)-7-((cis)-3-methyltetrahydro-2H-pyran-4-yl)-7H-pyrrolo[2,3-d]pyrimidine-6-carbonitrile] the value was 435 nM.
As for `CC(C)Oc1nn(C(C)C#N)cc1Nc1ncc2cc(C#N)n([C@@H]3COC[C@@H]3C)c2n1` (single isomer, unassigned) [Example 51, 2-((1-(1-cyanoethyl)-3-isopropoxy-1 H-pyrazol-4-yl)amino)-7-((cis)-4-methyltetrahydrofuran-3-yl)-7H-pyrrolo[2,3-d]pyrimidine-6-carbonitrile], the figure is 5 nM; as for `CO[C@H]1COC[C@H]1n1c(C#N)cc2cnc(Nc3cn(C(C)(C)C#N)nc3OC(C)C)nc21` [Example 60, 2-((1-(2-Cyanopropan-2-yl)-3-isopropoxy-1H-pyrazol-4-yl)amino)-7-((3R,4R)-4-methoxytetrahydrofuran-3-yl)-7H-pyrrolo[2,3-d]pyrimidine-6-carbonitrile], 42 nM.
As for `CC1COCCC1n1c(C#N)cc2cnc(Nc3cn(C)nc3OC3COC3)nc21` (single isomer, unassigned) [Example 85, ((1-methyl-3-(oxetan-3-yloxy)-1 H-pyrazol-4-yl)amino)-7-((cis)-3-methyltetrahydro-2H-pyran-4-yl)-7H-pyrrolo[2,3-d]pyrimidine-6-carbonitrile], the figure is 41 nM; as for `CC[C@@H]1COC[C@H]1n1c(C#N)cc2cnc(Nc3cn(C)nc3OC(C)C)nc21` (racemic) [Example 73, 7-((trans)-4-ethyltetrahydrofuran-3-yl)-2-((3-isopropoxy-1-methyl-1 H-pyrazol-4-yl)amino)-7H-pyrrolo[2,3-d]pyrimidine-6-carbonitrile], 11 nM.
On to `CO[C@H]1COC[C@H]1n1c(C#N)cc2cnc(Nc3cn(C(C)(C)C#N)nc3OC3CC3)nc21` [Example 59, 2-((1-(2-Cyanopropan-2-yl)-3-cyclopropoxy-1H-pyrazol-4-yl)amino)-7-((3R,4R)-4-methoxytetrahydrofuran-3-yl)-7H-pyrrolo[2,3-d]pyrimidine-6-carbonitrile], for which the IC50 came to 31 nM.
The molecule `CC(C)Oc1nn(C(C)C#N)cc1Nc1ncc2cc(C#N)n([C@@H]3COC[C@@H]3C)c2n1` (single isomer, unassigned) [Example 50, 2-((1-(1-cyanoethyl)-3-isopropoxy-1 H-pyrazol-4-yl)amino)-7-((cis)-4-methyltetrahydrofuran-3-yl)-7H-pyrrolo[2,3-d]pyrimidine-6-carbonitrile] had an IC50 of 7 nM.
`[2H]c1c(Nc2ncc3cc(C#N)n([C@H]4COC[C@@H]4C)c3n2)c(OC2COC2)nn1C` [Example 94, 2-((1-Methyl-3-(oxetan-3-yloxy)-1 H-pyrazol-4-yl-5-d)amino)-7-((3R,4R)-4-methyltetrahydrofuran-3-yl)-7H-pyrrolo[2,3-d]pyrimidine-6-carbonitrile] showed an IC50 of 7 nM.
For `[2H]c1c(Nc2ncc3cc(C#N)n([C@H]4COC[C@@H]4C)c3n2)c(OC2COC2)nn1C([2H])([2H])[2H]` [Example 98, 2-((1-(methyl-d3)-3-(oxetan-3-yloxy)-1H-pyrazol-4-yl-5-d)amino)-7-((3R,4R)-4-methyltetrahydrofuran-3-yl)-7H-pyrrolo[2,3-d]pyrimidine-6-carbonitrile] the value was 12 nM.
